From patent US10981882B1, “Compound for inhibiting IDO, a manufacturing method and a use thereof” (Shanghai JOYU Pharmatech Ltd., priority 2017, dated 2021)
pIC50: −log10 of the molar value.

What was measured:
human IDO1 protease = human IDO1 protease (Homo sapiens (Human), UniProt P14902); assay: Inhibitory activity against human IDO1 protease (recombinant enzyme, kynurenine absorbance at 480 nm); assay type: biochemical; conditions: recombinant human IDO1, L-Tryptophan substrate, 30 min at 37° C.
Sequence of human IDO1 protease (P14902 whole entry): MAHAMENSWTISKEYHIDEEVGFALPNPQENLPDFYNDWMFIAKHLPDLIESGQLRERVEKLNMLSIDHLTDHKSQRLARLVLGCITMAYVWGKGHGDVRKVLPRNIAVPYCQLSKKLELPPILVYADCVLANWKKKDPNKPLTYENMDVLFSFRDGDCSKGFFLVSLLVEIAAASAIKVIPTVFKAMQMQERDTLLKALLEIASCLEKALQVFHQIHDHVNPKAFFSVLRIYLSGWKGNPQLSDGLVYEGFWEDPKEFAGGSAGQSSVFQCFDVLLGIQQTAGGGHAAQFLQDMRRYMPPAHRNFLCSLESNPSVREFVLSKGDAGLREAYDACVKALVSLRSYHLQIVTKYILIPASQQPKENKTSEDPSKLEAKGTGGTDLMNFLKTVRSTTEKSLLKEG
Method: The inhibitory activity of extracorporal human IDO1 protease was tested through the following method. The inhibition effect of compounds of the present invention against the human IDO1 protease was determined through the method.
(1) Preparation of Human Recombinant IDO1 Protease
BL21 E. Coli were transformed with a correct sequences PET28a-hIDO1 vector. A single colony was inoculated in Luria-Bertani (LB) medium at 37° C. Bacterial cells were then collected through centrifugation. The cell pellets were sonicated, then centrifuged at 4° C. The supernatant was then collected and purified by Ni chromatography to give pure rhIDO1 protease.
(2) The Test of the Compounds
IDO1 enzymatic assay was carried out in a reaction mixture (500 μL/well) containing 50 mmol/L potassium phosphate buffer, 400 μg/mL catalase, 40 mmol/L ascorbic acid, 20 μmol/mL methylene blue, […] L-Tryptophan and the test compound. After the mixture was incubated for 3˜5 min at 37° C., recombinant human IDO1 was added to. The mixture was incubated for another 30 min at 37° C. and the reaction was stopped by adding 200 μL of 30% (w/v) trichloroacetic acid. After heating in a water bath pot at 65° C. for 15 min and centrifugation at 13800×g for 10 min. 100 μL of supernatant was transferred into a well of a 96-well microplate and mixed with the same volume of 2% (w/v) p-(dimethylamino)benzaldehyde in acetic acid. […]. When the color of the mixture became yellow, the mixture was measured for absorbance (D) value at 480 nm using microplate reader.
The inhibitory activity of compounds of the present invention against the human IDO1 protease was determined with the above test.

[1] = target: IDO protease in HEK293 cell (Homo sapiens (Human), UniProt P14902); assay: Inhibitory activity of IDO protease in HEK293 cell transfected with human IDO gene; assay type: cell-based; conditions: for pIC50: HEK293 cells transfected with pcDNA3.1(+)-hIDO, compounds incubated for 5 hr; for inhibiting effect on IDO protease: result in words, tested by the above assay
Sequence of IDO protease in HEK293 cell (P14902 whole entry): as above
Method: 2. Determination of the Inhibitory Activity of IDO Protease in HEK293 Cell
HEK293 cells were seeded in a 96-well microplate at a density of 2.5×10^4 cells/well and were maintained in DMEM (containing 10% fetal bovine serum, 50 U/mL penicillin and […] streptomycin) at 37° C. 24 hours later, HEK-293 cells were transfected with pcDNA3.1 (+)-hIDO vector carrying human IDO gene using Lipofectamine 2000. After 24 hr, the tested compounds were added to the cells and incubated for 5 hr. 140 μL of supernatant was transferred to a well in a new 96-well microplate. 10 μL of 30% (w/v) trichloroacetic acid was added to each sample-containing well and reaction was incubated at 65° C. for 15 min. The reaction mixture was centrifuged at 13000×g for 10 min. The supernatant was mixed with p-(dimethylamino)benzaldehydein acetic acid in the same volume. The yellow pigment derived from kynurenine was measured for absorbance (D) value at 480 nm using a microplate reader.
The inhibitory activity of compounds prepared in Example 1-19 against the IDO protease in HEK293 cell was determined with the above test.

| Structure (SMILES) | pIC50 (human IDO1 protease) | pIC50 [1] | inhibiting effect on IDO protease [1] |
| --- | --- | --- | --- |
| NS(=O)(=O)NC1CCC(CCNc2nonc2C(=NO)Nc2ccc(F)c(Br)c2)CC1 (centres unmarked) [Example 4, N-(3-bromo-4-fluorophenyl)-N′-hydroxy-4-((2-(4-(sulfamoylamino)cyclohexyl)ethyl)amino)-1,2,5-oxadiazole-3-carboximidamide] | 7.66 | 7.44 | – |
| NS(=O)(=O)NC1CCCC(CCNc2nonc2C(=NO)Nc2ccc(F)c(Br)c2)C1 (centres unmarked) [Example 12, N-(3-bromo-4-fluorophenyl)-N′-hydroxy-4-((2-(3-(sulfamoylamino)cyclohexyl)ethyl)amino)-1,2,5-oxadiazole-3-carboximidamide] | 7.22 | 7.64 | – |
| NS(=O)(=O)NCC1CCC(Nc2nonc2C(=NO)Nc2ccc(F)c(Br)c2)C1 (centres unmarked) [Example 14, N-(3-bromo-4-fluorophenyl)-N′-hydroxy-4-((3-((sulfamoylamino)methyl)cyclopentyl)amino)-1,2,5-oxadiazole-3-carboximidamide] | 6.97 | 7.32 | – |
| NS(=O)(=O)NCC1CCC(CNc2nonc2C(=NO)Nc2ccc(F)c(Br)c2)CC1 (centres unmarked) [Example 5, N-(3-bromo-4-fluorophenyl)-N′-hydroxy-4-(((4-((sulfamoylamino)methyl)cyclohexyl)methyl)amino)-1,2,5-oxadiazole-3-carboximidamide] | 7.35 | 7.85 | – |
| N=C(Nc1ccc(F)c(Br)c1)c1nonc1NCCC1CCCC(CNS(N)(=O)=O)C1 (centres unmarked) [Compound 14] | – | – | showed the inhibiting effect |
| NS(=O)(=O)NCC1CCCC(Nc2nonc2C(=NO)Nc2ccc(F)c(Br)c2)C1 (centres unmarked) [Example 9, N-(3-bromo-4-fluorophenyl)-N′-hydroxy-4-((3-((sulfamoylamino)methyl)cyclohexyl)amino)-1,2,5-oxadiazole-3-carboximidamide] | 7.19 | 7.57 | – |
| NS(=O)(=O)N[C@H]1CC[C@H](Nc2nonc2C(=NO)Nc2ccc(F)c(Br)c2)CC1 [Example 18, trans-N-(3-bromo-4-fluorophenyl)-N′-hydroxy-4-(((1r,4r)-4-(sulfamoylamino)yclohexyl)amino)-1,2,5-oxadiazole-3-carboximidamide] | 8.22 | 8.52 | – |
| N=C(Nc1ccc(F)c(Br)c1)c1nonc1NCC1CCCC(CCNS(N)(=O)=O)C1 (centres unmarked) [Compound 15] | – | – | showed the inhibiting effect |
| NS(=O)(=O)NC1CCCC(CNc2nonc2C(=NO)Nc2ccc(F)c(Br)c2)C1 (centres unmarked) [Example 11, N-(3-bromo-4-fluorophenyl)-N′-hydroxy-4-(((3-(sulfamoylamino)cyclohexyl)methyl)amino)-1,2,5-oxadiazole-3-carboximidamide] | 7.37 | 7.74 | – |
| NS(=O)(=O)NC[C@H]1CC[C@H](Nc2nonc2C(=NO)Nc2ccc(F)c(Br)c2)CC1 [Example 1, trans-N-(3-bromo-4-fluorophenyl)-N′-hydroxy-4-((4-((sulfamoylamino)methyl)cyclohexyl)amino)-1,2,5-oxadiazole-3-carboximidamide] | 7.80 | 8.10 | – |
| NS(=O)(=O)NCCC1CCC(CCNc2nonc2C(=NO)Nc2ccc(F)c(Br)c2)CC1 (centres unmarked) [Example 8, N-(3-bromo-4-fluorophenyl)-N′-hydroxy-4-((2-(4-(2-(sulfamoylamino)ethyl)cyclohexyl)ethyl)amino)-1,2,5-oxadiazole-3-carboximidamide] | 7.29 | 7.35 | – |

Next, values leading:

| pIC50 (human IDO1 protease) | pIC50 [1] | inhibiting effect on IDO protease [1] | Structure (SMILES) |
| --- | --- | --- | --- |
| 7.92 | 8.30 | – | NS(=O)(=O)N[C@H]1CC[C@@H](Nc2nonc2C(=NO)Nc2ccc(F)c(Br)c2)CC1 [Example 19, cis-N-(3-bromo-4-fluorophenyl)-N′-hydroxy-4-(((1s,4s)-4-(sulfamoylamino)cyclohexyl)amino)-1,2,5-oxadiazole-3-carboximidamide] |
| 7.13 | 7.68 | – | NS(=O)(=O)NCCC1CCC(CNc2nonc2C(=NO)Nc2ccc(F)c(Br)c2)CC1 (centres unmarked) [Example 7, N-(3-bromo-4-fluorophenyl)-N′-hydroxy-4-(((4-(2-(sulfamoylamino)ethyl)cyclohexyl)methyl)amino)-1,2,5-oxadiazole-3-carboximidamide] |
| – | – | showed the inhibiting effect | N=C(Nc1ccc(F)c(Br)c1)c1nonc1NC1CCC(CCNS(N)(=O)=O)C1 (centres unmarked) [Compound 17] |
| 7.82 | 8.00 | – | NS(=O)(=O)NC1CCC(Nc2nonc2/C(=N/O)Nc2ccc(F)c(Br)c2)CC1 (centres unmarked) [Example 17, N-(3-bromo-4-fluorophenyl)-N′-hydroxy-4-((4-(sulfamoylamino)cyclohexyl)amino)-1,2,5-oxadiazole-3-carboximidamide] |
| – | – | showed the inhibiting effect | NS(=O)(=O)NC1CCC(CNc2nonc2C(=NO)Nc2ccc(F)c(Br)c2)C1 (centres unmarked) [Compound 19] |
| 7.20 | 7.38 | – | NS(=O)(=O)NC1CCC(Nc2nonc2C(=NO)Nc2ccc(F)c(Br)c2)C1 (centres unmarked) [Example 16] |
| 7.32 | 7.41 | – | NS(=O)(=O)NCC1CCC(CCNc2nonc2C(=NO)Nc2ccc(F)c(Br)c2)CC1 (centres unmarked) [Example 6, N-(3-bromo-4-fluorophenyl)-N′-hydroxy-4-((2-(4-((sulfamoylamino)methyl)cyclohexyl)ethyl)amino)-1,2,5-oxadiazole-3-carboximidamide] |
| 7.08 | 7.43 | – | NS(=O)(=O)NC1CCN(Nc2nonc2C(=NO)Nc2ccc(F)c(Br)c2)CC1 [Example 15, N-(3-bromo-4-fluorophenyl)-N′-hydroxy-4-((4-(sulfamoylamino)piperidin-1-yl)amino)-1,2,5-oxadiazole-3-carboximidamide] |
| – | – | showed the inhibiting effect | NS(=O)(=O)NCCC1CCCC(CCNc2nonc2C(=NO)Nc2ccc(F)c(Br)c2)C1 (centres unmarked) [Compound 16] |
| 7.42 | 7.89 | – | NS(=O)(=O)N[C@H]1CC[C@H](CNc2nonc2C(=NO)Nc2ccc(F)c(Br)c2)CC1 [Example 3, Trans-N-(3-bromo-4-fluorophenyl)-N′-hydroxy-4-(((4-(sulfamoylamino)cyclohexyl)methyl)amino)-1,2,5-oxadiazole-3-carboximidamide] |
| 7.23 | 7.28 | – | NS(=O)(=O)NCCC1CCCC(Nc2nonc2C(=NO)Nc2ccc(F)c(Br)c2)C1 (centres unmarked) [Example 10, N-(3-bromo-4-fluorophenyl)-N′-hydroxy-4-((3-(2-(sulfamoylamino)ethyl)cyclohexyl)amino)-1,2,5-oxadiazole-3-carboximidamide] |
| 7.34 | 7.44 | – | NS(=O)(=O)NCC[C@H]1CC[C@H](Nc2nonc2C(=NO)Nc2ccc(F)c(Br)c2)CC1 [Example 2, trans-N-(3-bromo-4-fluorophenyl)-N′-hydroxy-4-((4-(2-(sulfamoylamino)ethyl)cyclohexyl)amino)-1,2,5-oxadiazole-3-carboximidamide] |
